Measurements published in patent publication US20130005802A1, “TREATMENT OF WNT/FRIZZLED-RELATED DISEASES” (priority 2009, published 2013).

What was measured:
Frizzled1-GFP = Frizzled1-GFP (Rattus norvegicus, UniProt Q08463); assay: Co-localization of internalized Frizzled1-GFP with β2-adrenergic receptor-RFP or Transferrin; assay type: cell-based
Protocol: To remove remaining surface bound Tf, the cells were exposed to unlabeled transferrin (10 mg/mL) for 2 min at room temperature. The cells were then fixed with 4% paraformaldehye, and imaged with a LSM510 confocal microscope (Zeiss).
Many classes of membrane receptors internalize in clathrin coated pits. In particular, β2-adrenergic receptors are prototypical for clathrin-dependent internalization of G protein-coupled receptors (Barak, L. S., et al. Mol Pharmacol 1997, 51, 177-184; Goodman, O. B., Jr., et al. Nature 1996, 383, 447-450, both are incorporated herein by reference in their entireties), and Transferrin is a well-documented standard for clathrin-mediated internalization in general (Mellman, I. Annu Rev Cell Dev Biol 1996, 12, 575-625, incorporated herein by reference). It was examined whether internalized Frizzled1-GFP co-localizes with either β2-adrenergic receptor-RFP or Transferrin in intracellular vesicles. FIG. 6A-6C show confocal images of unstimulated U2OS cells expressing both β2-adrenergic receptor-RFP (β2AR-RFP, FIG. 6A) and Frizzled1 receptors (Fzd1-GFP, FIG. 6B) prior to activation.
The merged image is presented in (FIG. 6L), wherein arrowheads indicate co-localized vesicles.

Dishevelled-2 = assay: Immunoblot of endogenous cytosolic Dishevelled-2 in U2OS cells; assay type: cell-based; details: 1-7.5 μM, read-out: half maximal reduction of Dishevelled-2
Text: After treatment, cytosolic fraction as well as cellular membrane were isolated as described (Mikels, A. J., et al. PLoS Biol 2006, 4, e115, incorporated herein by reference in its entirety). Immunoblots using β-catenin or Dishevelled-2 antibody were used to detect the respective protein levels in cytosol or on membrane, with β-actin immunoblots used for loading controls.
Dishevelled proteins (Dishevelled-1, 2, and 3 in mammalian cells) are intracellular molecules transducing Frizzled signaling.

CRC explants = assay: MTT assay, CRC explants; assay type: cell-based; details: 72 hr
Protocol: AsPC-1 tumor cells were cultured with T cells at a 1:5 ratio for 7 days in the presence of MEDI-565 or Cont BiTE (100 ng/mL). On day 7, floating cells were discarded and only adherent AsPC-1 cells were harvested with 0.05% trypsin/EDTA and washed with PBS three times. 1×10^4 AsPC-1 tumor cells were added to each well of 96 well flat bottom plates in 200 μL of complete RPMI1640 medium. The cells were allowed to adhere to the plates overnight at 37° C. (day 0) and were further incubated for 1, 2, 4 or 7 days. 20 μL of 10×MTT (3-[4,5-dimethylthiazol-2-yl]-2,5-diphenyl-tetrazolium bromide, 5 mg/mL) solution was added to each well, and incubated at 37° C. for 2 hr. The adherent cells were lysed with 150 μL of dimethyl sulfoxide (DMSO) and the optical density (OD) at 550 nm was measured.
The cells were allowed to adhere to the plates overnight at 37° C. (day 0). […] Then 20 μL of 10×MTT solution was added to each well and incubated at 37° C. for 2 hr. The adherent cells were lysed with 150 μL of DMSO, and then optical density (OD) at 562 nm was measured. DMSO or culture medium was used as a control.
An MTT assay was performed after 72 hr incubation. After cell lysis with DMSO, the optical density (OD) at 562 nm was measured.

HCT116 tumors = assay: In vivo anti-tumor effect, HCT116 tumors; set-up: species or system NOD/SCID mice
Protocol: HCT116 colon cancer cells were harvested from flasks with 0.05% Trypsin/EDTA, washed with PBS, and resuspended with Hanks buffered solution at 5×10^6 cells/100 μL concentration. CRC explants (CRC039) cultured in vitro were harvested with the same procedure, and mixed with equal volume of Matrigel to make 1×10^6 cells/100 μL concentration. A hundred μL of cell suspension was inoculated to the flank of NOD/SCID mice 4 days before the start of treatment. […] Tumor size was measured 3 times a week until mice were sacrificed.
(§1) HCT116 colon cancer cells were harvested from flasks with 0.05% Trypsin/EDTA and resuspended with Hanks buffered solution at 5×10^6 cells/100 μL concentration. CRC explants (CRC039) cultured in vitro were harvested with the same procedure and mixed with equal volume of Matrigel to make 1×10^6 cells/100 μL concentration. The cell suspension (100 μL) was inoculated into the flank of NOD/SCID mice 4 days before the start of treatment. […] Initially, 2 weeks of treatment was planned for both HCT116 and CRC039. However, treatment was extended to 3 weeks for CRC039 cells because the […] grew much slower than the HCT116 cell line. Tumor size was measured 3 times a week until mice were euthanized.

[1] = Side effects during in vivo treatment; set-up: species or system NOD/SCID mice; details: up to 200 mg/kg gavage, 2-3 weeks
Protocol: as §1

β-catenin = assay: Immunohistochemistry of β-catenin in treated tumors; assay type: in vivo, NOD/SCID mice; details: 200 mg/kg, 2 or 3 weeks
Protocol: Paraffin-embedded specimens were cut into 4 μm-thick of sequential sections. After dewaxing in xylene and rehydrating stepwise in ethanol, sections were subjected to heat-induced antigen retrieval. Endogenous peroxidase activity was blocked with 3% H2O2, and non-specific binding was blocked with non-immune horse sera. Sections were then incubated with primary antibodies overnight at 4C. Anti-β-catenin (sc-65483, Santa Cruz Biotechnology, Inc., Santa Cruz, Calif.) and anti-Dvl-2 (sc-8026, Santa Cruz Biotechnology, Inc., Santa Cruz, Calif.) monoclonal antibodies were used at (1:50) dilution. After rinsing the sections were incubated with the biotinylated secondary antibody (1:200 dilution; Dakopatts, Copenhagen, Denmark) for 30 min at room temperature and then with the avidin-biotin peroxidase complex from the Vector Elite ABC kit (Vector Laboratories, Burlingame, Calif.) according to the manufacturer's instructions. Visualization was achieved using 3,3′-diaminobenzidine tetrahydrochloride and H2O2. Specimens were counterstained with hematoxylin.
NOD/SCID mice were implanted with colorectal cancer explants or cell lines. […] Tumors were excised and fixed with 10% neutralized, buffered formalin. Paraffin-embedded specimens were cut into 4 μm-thick of sequential sections. After dewaxing and rehydration, heat-induced antigen retrieval was performed. […]

Frizzled1-GFP, sequence (Q08463 69-641): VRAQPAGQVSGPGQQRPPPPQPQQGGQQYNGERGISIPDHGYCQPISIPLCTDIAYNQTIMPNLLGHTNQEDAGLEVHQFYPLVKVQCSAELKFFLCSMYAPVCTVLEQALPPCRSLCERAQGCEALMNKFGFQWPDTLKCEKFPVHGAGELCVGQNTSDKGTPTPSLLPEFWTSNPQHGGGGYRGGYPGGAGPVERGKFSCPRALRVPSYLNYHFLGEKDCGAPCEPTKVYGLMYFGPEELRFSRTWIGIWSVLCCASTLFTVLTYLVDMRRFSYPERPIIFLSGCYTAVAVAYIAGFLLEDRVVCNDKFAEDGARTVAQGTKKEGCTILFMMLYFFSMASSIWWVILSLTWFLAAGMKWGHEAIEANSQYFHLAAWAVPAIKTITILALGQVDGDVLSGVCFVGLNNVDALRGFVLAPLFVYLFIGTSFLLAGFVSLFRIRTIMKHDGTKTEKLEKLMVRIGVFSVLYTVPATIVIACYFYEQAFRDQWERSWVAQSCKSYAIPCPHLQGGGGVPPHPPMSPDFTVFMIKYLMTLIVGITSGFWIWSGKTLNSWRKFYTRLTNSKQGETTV

O=C(Nc1ccc([N+](=O)[O-])cc1Cl)c1cc(Cl)ccc1O [niclosamide]
co-localization of Fzd1-GFP with β2AR-RFP (Frizzled1-GFP; […] niclosamide and 0.1 μM isoproterenol, 2 hr or 6 hr): multiple overlapping intracellular distributions | co-localization of internalized Transferrin with internalized Frizzled1 (Frizzled1-GFP; […] niclosamide, Transferrin 100 μg/mL, 2 hr): significant co-localization | IC50 (Dishevelled-2): ~1000 nM | killing of CRC020 explant cells (CRC explants; 5 μM): killed significantly | cytotoxicity (MTT, OD 562 nm) in 8 CRC explants (CRC explants; 0.4, 2, 10 μM): cytotoxic effects | tumor volume vs control (HCT116 tumors; 200 mg/kg gavage, after two weeks): less than half a volume | tumor growth (HCT116 tumors; 10, 100 or 200 mg/kg gavage, 6 days per week, 2 weeks): significantly inhibited the growth | side effects during treatment [1]: no obvious side effect | cytoplasmic expression of β-catenin in tumors vs control (β-catenin): decreased levels
